Legend:
ALOMY = test: Pre-emergence action against ALOMY; type: in vivo, Alopecurus myosuroides; details: dosage 320 g/ha, pre-emergence, scored visually after 3 weeks vs untreated controls, 100% = plants have died, 0% = like control plants
Procedure, shortened: (§1)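 Seeds sown in sandy loam in wood-fiber pots and covered with soil. Greenhouse growth; visual damage scored after 3 weeks versus untreated controls (100% = dead, 0% = like control).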

CYPES [1] = test: Pre-emergence action against CYPES; type: in vivo, Cyperus esculentus; details: pre-emergence, dosage 320 g/ha, scored visually after 3 weeks vs untreated controls
Procedure, shortened: as §1

ECHCG [2] = test: Pre-emergence action against ECHCG; type: in vivo, Echinochloa crus-galli; details: pre-emergence, dosage 320 g/ha, scored visually after 3 weeks vs untreated controls
Procedure, shortened: as §1

SETVI [3] = test: Pre-emergence action against SETVI; type: in vivo, Setaria viridis; details: pre-emergence, dosage 320 g/ha, scored visually after 3 weeks vs untreated controls
Procedure, shortened: as §1

ABUTH [4] = test: Pre-emergence action against ABUTH; type: in vivo, Abutilon theophrasti; details: pre-emergence, dosage 320 g/ha, scored visually after 3 weeks vs untreated controls
Procedure, shortened: as §1

AMARE [5] = test: Pre-emergence action against AMARE; type: in vivo, Amaranthus retroflexus; details: pre-emergence, dosage 320 g/ha, scored visually after 3 weeks vs untreated controls
Procedure, shortened: as §1

MATIN [6] = test: Pre-emergence action against MATIN; type: in vivo, Matricaria inodora; details: Dosage 320 g/ha, pre-emergence
Procedure, shortened: as §1

POLCO [7] = test: Pre-emergence action against POLCO; type: in vivo, Polygonum convolvulus; details: Dosage 320 g/ha, pre-emergence
Excerpt: Seeds of monocotyledonous and dicotyledonous weed plants and crop plants are laid out in sandy loam soil in wood-fiber pots and covered with soil. The compounds of the invention, formulated in the form of wettable powders (WP) or as emulsion concentrates (EC), are then applied to the surface of the covering soil in the form of an aqueous suspension or emulsion at a water application rate equating to […], with addition of 0.2% wetting agent. After the treatment, the pots are placed in a greenhouse and kept under good growth conditions for the trial plants. The damage to the test plants is scored visually after a test period of 3 weeks by comparison with untreated controls (herbicidal activity in percent (%): 100% activity=the plants have died, 0% activity=like control plants).

STEME [8] = test: Pre-emergence action against STEME; type: in vivo, Stellaria media; details: Dosage 320 g/ha, pre-emergence
Procedure, shortened: as §1

VIOTR [9] = test: Pre-emergence action against VIOTR; type: in vivo, Viola tricolor; details: Dosage 320 g/ha, pre-emergence
Procedure, shortened: as §1

ECHCG [10] = test: Post-emergence action against ECHCG; type: in vivo, Echinochloa crus-galli; details: post-emergence, dosage 80 g/ha, visual assessment about 3 weeks after treatment vs untreated controls
Procedure, shortened: (§2)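 Post-emergence foliar spray on greenhouse plants at the one-leaf stage, using wettable-powder or emulsion-concentrate formulations in water (600 to […], plus 0.2% wetting agent). Damage scored by eye roughly 3 weeks later against untreated plants: 0% = like control, 100% = dead.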

SETVI [11] = test: Post-emergence action against SETVI; type: in vivo, Setaria viridis; details: post-emergence, dosage 80 g/ha, visual assessment about 3 weeks after treatment vs untreated controls
Procedure, shortened: as §2

ABUTH [12] = test: Post-emergence action against ABUTH; type: in vivo, Abutilon theophrasti; details: post-emergence, dosage 80 g/ha, visual assessment about 3 weeks after treatment vs untreated controls
Procedure, shortened: as §2

AMARE [13] = test: Post-emergence action against AMARE; type: in vivo, Amaranthus retroflexus; details: post-emergence, dosage 80 g/ha, visual assessment about 3 weeks after treatment vs untreated controls
Procedure, shortened: as §2

MATIN [14] = test: Post-emergence action against MATIN; type: in vivo, Matricaria inodora; details: post-emergence, dosage 80 g/ha, visual assessment about 3 weeks after treatment vs untreated controls
Procedure, shortened: as §2

PHBPU [15] = test: Post-emergence action against PHBPU; type: in vivo, Pharbitis purpurea; details: post-emergence, dosage 80 g/ha
Procedure, shortened: as §2

POLCO [16] = test: Post-emergence action against POLCO; type: in vivo, Polygonum convolvulus; details: post-emergence, dosage 80 g/ha
Experimental: Seeds of monocotyledonous and dicotyledonous weed and crop plants are laid out in sandy loam soil in wood-fiber pots, covered with soil and cultivated in a greenhouse under good growth conditions. 2 to 3 weeks after sowing, the test plants are treated at the one-leaf stage. The compounds of the invention, formulated in the form of wettable powders (WP) or as emulsion concentrates (EC), are then sprayed onto the green parts of the plants in the form of an aqueous suspension or emulsion at a water application rate equating to […], with addition of 0.2% wetting agent. After the test plants have been left to stand in the greenhouse under optimal growth conditions for about 3 weeks, the action of the preparations is assessed visually in comparison to untreated controls (herbicidal action in percent (%): 100% activity=the plants have died, 0% activity=like control plants). […] At the same time, inventive compounds leave Gramineae crops such as barley, wheat, rye, millet/Sorghum, corn or rice virtually undamaged when applied post-emergence, even at high active ingredient dosages. In addition, some substances are also harmless to dicotyledonous crops such as soya, cotton, oilseed rape, sugar beet or potatoes. Some of the compounds according to the invention have high selectivity and are therefore suitable for controlling unwanted vegetation in agricultural crops by the post-emergence method. The data of Tables B18 to B34 below illustrate, in an exemplary manner, the […] herbicidal action of the compounds according to the invention, the herbicidal activity being stated in percent.

STEME [17] = test: Post-emergence action against STEME; type: in vivo, Stellaria media; details: post-emergence, dosage 80 g/ha
Procedure, shortened: as §2

VIOTR [18] = test: Post-emergence action against VIOTR; type: in vivo, Viola tricolor; details: post-emergence, dosage 80 g/ha
Procedure, shortened: as §2

AVEFA = test: Pre-emergence action against AVEFA; type: in vivo, Avena fatua; details: dosage 320 g/ha, scored visually after 3 weeks vs untreated controls
Procedure, shortened: as §1

PHBPU [19] = test: Pre-emergence action against PHBPU; type: in vivo, Pharbitis purpurea; details: Dosage 320 g/ha, pre-emergence
Procedure, shortened: as §1

VERPE [20] = test: Pre-emergence action against VERPE; type: in vivo, Veronica persica; details: Dosage 320 g/ha, pre-emergence
Procedure, shortened: as §1

CYPES [21] = test: Post-emergence action against CYPES; type: in vivo, Cyperus esculentus; details: post-emergence, dosage 80 g/ha, visual assessment about 3 weeks after treatment vs untreated controls
Procedure, shortened: as §2

VERPE [22] = test: Post-emergence action against VERPE; type: in vivo, Veronica persica; details: dosage 80 g/ha
Procedure, shortened: as §2

Structure (SMILES)	Pre-emergence action against ALOMY (herbicidal activity in percent) (ALOMY)	Pre-emergence action against CYPES (herbicidal activity) (CYPES [1])	Pre-emergence action against ECHCG (herbicidal activity) (ECHCG [2])	SETVI (Table B8, pre-emergence herbicidal activity) (SETVI [3])	Pre-emergence action against ABUTH (herbicidal activity) (ABUTH [4])	Pre-emergence action against AMARE (herbicidal activity) (AMARE [5])	Pre-emergence action against MATIN (MATIN [6])	Pre-emergence action against POLCO (POLCO [7])	Pre-emergence action against STEME (STEME [8])	Pre-emergence action against VIOTR (VIOTR [9])	Post-emergence action against ECHCG (herbicidal action in percent) (ECHCG [10])	Post-emergence action against SETVI (herbicidal action in percent) (SETVI [11])	Post-emergence action against ABUTH (herbicidal action in percent) (ABUTH [12])	Post-emergence action against AMARE (herbicidal action in percent) (AMARE [13])	Post-emergence action against MATIN (herbicidal action in percent) (MATIN [14])	Post-emergence action against PHBPU (PHBPU [15])	Post-emergence action against POLCO (POLCO [16])	Post-emergence action against STEME (STEME [17])	Post-emergence action against VIOTR (VIOTR [18])	Pre-emergence action against VERPE (VERPE [20])	other results
CCn1nnnc1NC(=O)c1ccc(C)c(C(C)=O)c1C [2-1]	90%	80%	90%	90%	90%	100%	90%	90%	90%	100%	100%	80%	80%	100%	90%	90	100	80	100		
CCCn1nnnc1NC(=O)c1ccc(C(F)(F)F)c(C(C)=O)c1Br [3-195]	80%	90%	100%	100%	100%	100%	100%		90%	100%	90%	90%			90%	90	90	90	90	100%	Pre-emergence action against AVEFA (herbicidal activity) (AVEFA): 90%; Pre-emergence action against PHBPU (PHBPU [19]): 90%; Post-emergence action against CYPES (herbicidal action in percent) (CYPES [21]): 80%
CCCn1nnnc1NC(=O)c1ccc(C(F)(F)F)c(C(C)=O)c1OC [3-48]	90%	90%	100%	100%	100%	100%	100%	80%	90%	100%	90%	80%	100%		100%	100	80	100	100	90%	Pre-emergence action against PHBPU (PHBPU [19]): 80%; Post-emergence action against CYPES (herbicidal action in percent) (CYPES [21]): 90%; Post-emergence action against VERPE (VERPE [22]): 80
CC(=O)c1c(C)ccc(C(=O)Nc2nnnn2C)c1C [1-1]																					pest or weed control at 320 g/ha (ALOMY; Alopecurus myosuroides, 504 h, read-out: Pre-emergence action against ALOMY (herbicidal activity in percent)): 80%; pest or weed control at 320 g/ha (ECHCG [2]; Echinochloa crus-galli, 504 h, read-out: Pre-emergence action against ECHCG (herbicidal activity)): 90%; pest or weed control at 320 g/ha (SETVI [3]; Setaria viridis, 504 h, read-out: SETVI (Table B8, pre-emergence herbicidal activity)): 90%; pest or weed control at 320 g/ha (ABUTH [4]; Abutilon theophrasti, 504 h, read-out: Pre-emergence action against ABUTH (herbicidal activity)): 90%; pest or weed control at 320 g/ha (AMARE [5]; Amaranthus retroflexus, 504 h, read-out: Pre-emergence action against AMARE (herbicidal activity)): 100%; pest or weed control at 320 g/ha (MATIN [6]; Tripleurospermum inodorum, 504 h): 100%; pest or weed control at 320 g/ha (POLCO [7]; Fallopia convolvulus, 504 h): 80%; pest or weed control at 320 g/ha (STEME [8]; Stellaria media, 504 h): 90%; pest or weed control at 320 g/ha (VIOTR [9]; Viola tricolor, 504 h): 100%; pest or weed control at 80 g/ha (ECHCG [10]; Echinochloa crus-galli, 504 h, read-out: Post-emergence action against ECHCG (herbicidal action in percent)): 100%; pest or weed control at 80 g/ha (ABUTH [12]; Abutilon theophrasti, 504 h, read-out: Post-emergence action against ABUTH (herbicidal action in percent)): 100%; pest or weed control at 80 g/ha (AMARE [13]; Amaranthus retroflexus, 504 h, read-out: Post-emergence action against AMARE (herbicidal action in percent)): 100%; pest or weed control at 80 g/ha (MATIN [14]; Tripleurospermum inodorum, 504 h, read-out: Post-emergence action against MATIN (herbicidal action in percent)): 80%; pest or weed control at 80 g/ha (PHBPU [15]; Ipomoea purpurea, 504 h): 90%; pest or weed control at 80 g/ha (POLCO [16]; Fallopia convolvulus, 504 h): 80%; pest or weed control at 80 g/ha (STEME [17]; Stellaria media, 504 h): 100%; pest or weed control at 80 g/ha (VIOTR [18]; Viola tricolor, 504 h): 100%
CCn1nnnc1NC(=O)c1ccc(Cl)c(C(=O)C(C)C)c1Cl [2-280]	100%		100%		100%	100%	100%	80%	90%		90%	90%	90%	100%	90%	100	80	100	90	90%	

Source: patent US11051515B2, “3-acyl-benzamides and their use as herbicides” (Bayer Aktiengesellschaft, priority 2017, dated 2021)
